Source: patent publication US10611733B2, “Quinazolinone analogs and use of quinazolinone analogs for treating or preventing certain viral infections” (priority 2011, dated 2020)

Columns and labels:
HCV Con1b (Replicon) = HCV Con1b (Replicon) Luciferase end-point; format: cell-based, Hepatitis C Virus; settings: for CC50: read-out: TC50 (the source's name)
WNV = WNV antiviral assay; format: cell-based, West Nile Virus; settings: for CC50: read-out: TC50 (the source's name)
Description: (§1) The use of N-(2,3-dihydro-1H-inden-5-yl)-2-(4-oxo-3-phenyl-3,4-dihydroquinazolin-2-yl)thio) acetamide, a compound employed according to the present disclosure, for treating West Nile Virus has been disclosed. For example, please see Chung et al. A Cell Based Assay for the Identification of Lead Compounds with Anti-Viral Activity Against West Nile Virus, Probe Reports from the NIH Molecular Libraries Program[Internet]. Bethesda (Md.): National Center for Biotechnology Information (US); 2010-2010 Feb. 27 [updated 2010 Oct. 4], PMID: 21433390 [PubMed].

JEV = JEV cell based virus CPE reduction assay; parameters: species or system Japanese Encephalitis Virus
Description: as §1

HCV Con 1b (Replicon) = HCV Con 1b (Replicon) RNA end-point; format: cell-based, Hepatitis C Virus; settings: HCV Con 1b replicon, RNA end-point; for CC50: read-out: TC50 (the source's name)
Procedure: The reduction in HCV was determined with two assays using viral RNA endpoints. […] This cell line expresses a subgenomic section of the HCV genome containing NS2a, NS2b, NS3a, NS3b, NS4a, NS4b, NS5a and NS5b.

SMILES	IC50 (HCV Con1b (Replicon))	CC50 (HCV Con1b (Replicon))	IC50 (WNV)	CC50 (WNV)	also measured
O=C(CSc1nc2ccccc2c(=O)n1-c1ccc(Cl)c(Cl)c1)Nc1ccc2scnc2c1 [Example C46, N-benzothiazol-5-yl-2-[3-(3,4-dichlorophenyl)-4-oxo(3-hydroquinazolin-2-ylthio)]acetamide]	1 to 5 µM	≥ 100 µM	–	–	–
O=C(CSc1nc2ccccc2c(=O)n1-c1cc(F)cc(F)c1)Nc1ccc2c(c1)CCC2 [Example C38, 2-[3-(3,5-difluorophenyl)-4-oxo(3-hydroquinazolin-2-ylthio)]-N-indan-5-ylacetamide]	–	–	5 to 25 µM	≥ 100 µM	–
O=C(CSc1nc2c(F)cccc2c(=O)n1-c1ccccc1)Nc1ccc2c(c1)CCC2 [Example C42, 2-(8-fluoro-4-oxo-3-phenyl(3-hydroquinazolin-2-ylthio))-N-indan-5-ylacetamide]	–	–	5 to 25 µM	≥ 100 µM	–
O=C(CSc1nc2cccc(F)c2c(=O)n1-c1cc(F)c(F)c(F)c1)Nc1ccc2c(c1)CCC2 [Example C30, 2-[5-fluoro-4-oxo-3-(3,4,5-trifluorophenyl)(3-hydroquinazolin-2-ylthio)]-N-indan-5-ylacetamide]	1 to 5 µM	50 to 100 µM	–	–	–
O=C(CSc1nc2ccccc2c(=O)n1-c1ccc(Cl)c(Cl)c1)Nc1cccc2c1CCC2 [Example C18, 2-[3-(3,4-dichlorophenyl)-4-oxo(3-hydroquinazolin-2-ylthio)]-N-indan-4-ylacetamide]	5 to 25 µM	50 to 100 µM	–	–	–
O=C(CSc1nc2ccccc2c(=O)n1-c1ccc(F)c(Cl)c1)Nc1ccc2c(c1)OCO2 [Example C23, N-(2H-benzo[3,4-d]1,3-dioxolan-5-yl)-2-[3-(3-chloro-4-fluorophenyl)-4-oxo(3-hydroquinazolin-2-ylthio)]acetamide]	5 to 25 µM	≥ 100 µM	–	–	–
O=C(CCSc1nc2ccccc2c(=O)n1-c1ccc(F)c(Cl)c1)Nc1ccc2c(c1)CCC2 [Example C21, 3-[3-(3-chloro-4-fluorophenyl)-4-oxo(3-hydroquinazolin-2-ylthio)]-N-indan-5-ylpropanamide]	5 to 25 µM	10 to 50 µM	–	–	–
O=C(CSc1nc2ccccc2c(=O)n1-c1cc(Cl)cc(Cl)c1)Nc1ccc2c(c1)CCC2 [Example C20, 2-[3-(3,5-dichlorophenyl)-4-oxo(3-hydroquinazolin-2-ylthio)]-N-indan-5-ylacetamide]	–	–	1 to 5 µM	≥ 100 µM	–
O=C(CCSc1nc2ccccc2c(=O)n1-c1cc(F)c(F)c(F)c1)Nc1ccc2c(c1)CCC2 [Example C25, N-indan-5-yl-3-[4-oxo-3-(3,4,5-trifluorophenyl)(3-hydroquinazolin-2-ylthio)]propanamide]	–	–	–	–	IC50 (JEV): 5 to 25 µM; CC50 (JEV; read-out: TC50 (the source's name)): ≥ 100 µM
O=C(CSc1nc2c(F)cccc2c(=O)n1-c1ccc(Cl)c(Cl)c1)Nc1ccc2c(c1)CCC2 [Example C37, 2-[3-(3,4-dichlorophenyl)-8-fluoro-4-oxo(3-hydroquinazolin-2-ylthio)]-N-indan-5-ylacetamide]	–	–	5 to 25 µM	10 to 50 µM	–
O=C(CSc1nc2c(F)cccc2c(=O)n1-c1cc(Cl)cc(Cl)c1)Nc1ccc2c(c1)CCC2 [Example C39, 2-[3-(3,5-dichlorophenyl)-8-fluoro-4-oxo(3-hydroquinazolin-2-ylthio)]-N-indan-5-ylacetamide]	–	–	5 to 25 µM	50 to 100 µM	–
O=C(CSc1nc2ccccc2c(=O)n1-c1ccc(F)c(Cl)c1)Nc1cccc2c1CCC2 [Example C22, 2-[3-(3-chloro-4-fluorophenyl)-4-oxo(3-hydroquinazolin-2-ylthio)]-N-indan-4-ylacetamide]	1 to 5 µM	10 to 50 µM	–	–	–
O=C(CSc1nc2ccccc2c(=O)n1-c1ccccc1F)Nc1ccc2c(c1)CCC2 [Example C11, 2-[3-(2-fluorophenyl)-4-oxo(3-hydroquinazolin-2-ylthio)]-N-indan-5-ylacetamide]	–	–	5 to 25 µM	≥ 100 µM	–
Cc1cccc2c(=O)n(-c3ccccc3)c(SCC(=O)Nc3ccc4c(c3)CCC4)nc12 [Example C16, N-indan-5-yl-2-(8-methyl-4-oxo-3-phenyl(3-hydroquinazolin-2-ylthio))acetamide]	1 to 5 µM	10 to 50 µM	–	–	–
O=C(CSc1nc2ccccc2c(=O)n1-c1ccc(Cl)c(Br)c1)Nc1ccc2c(c1)CCC2 [Example C41, 2-[3-(3-bromo-4-chlorophenyl)-4-oxo(3-hydroquinazolin-2-ylthio)]-N-indan-5-ylacetamide]	–	–	5 to 25 µM	≥ 100 µM	–
O=C(CSc1nc2ccccc2c(=O)n1-c1ccc(Cl)c(Cl)c1)Nc1ccc2c(c1)OCO2 [Example C19, N-(2H-benzo[d]1,3-dioxolen-5-yl)-2-[3-(3,4-dichlorophenyl)-4-oxo(3-hydroquinazolin-2-ylthio)]acetamide]	1 to 5 µM	≥ 100 µM	–	–	–

SMILES	IC50 (HCV Con1b (Replicon))	CC50 (HCV Con1b (Replicon))	IC50 (WNV)	CC50 (WNV)	also measured
O=C(CSc1nc2ccccc2c(=O)n1-c1ccccc1)Nc1ccc2c(c1)CCC2 [Example C32, N-indan-5-yl-2-(4-oxo-3-phenyl(3-hydroquinazolin-2-ylthio))acetamide]	–	–	5 to 25 µM	≥ 100 µM	–
Cc1ccc(-n2c(SCC(=O)Nc3ccc4c(c3)CCC4)nc3ccccc3c2=O)cc1Br [Example C36, 2-[3-(3-bromo-4-methylphenyl)-4-oxo(3-hydroquinazolin-2-ylthio)]-N-indan-5-ylacetamide]	–	–	5 to 25 µM	≥ 100 µM	–
O=C(CSc1nc2ccccc2c(=O)n1-c1ccc(Cl)c(Cl)c1)Nc1ccc2c(c1)CCC2 [Example C13, 2-[3-(3,4-dichlorophenyl)-4-oxo(3-hydroquinazolin-2-ylthio)]-N-indan-5-ylacetamide]	1 to 5 µM	50 to 100 µM	5 to 25 µM	≥ 100 µM	–
O=C(CSc1nc2ccccc2c(=O)n1-c1ccc(Cl)c(Cl)c1)Nc1nc(-c2ccccc2)cs1 [Example C45, 2-[3-(3,4-dichlorophenyl)-4-oxo(3-hydroquinazolin-2-ylthio)]-N-(4-phenyl(1,3-thiazol-2-yl))acetamide]	< 1 µM	≥ 100 µM	–	–	IC50 (HCV Con 1b (Replicon)): < 1 µM; CC50 (HCV Con 1b (Replicon)): 50 to 100 µM
O=C(CSc1nc2cccc(F)c2c(=O)n1-c1ccccc1)NC1CCCc2ccccc21 (stereo not shown) [Example C28, 2-(5-fluoro-4-oxo-3-phenyl(3-hydroquinazolin-2-ylthio))-N-(1,2,3,4-tetrahydronaphthyl)acetamide]	5 to 25 µM	≥ 100 µM	–	–	–
O=C(CSc1nc2ccccc2c(=O)n1-c1cc(F)c(F)c(F)c1)Nc1ccc2c(c1)CCC2 [Example C35, N-indan-5-yl-2-[4-oxo-3-(3,4,5-trifluorophenyl)(3-hydroquinazolin-2-ylthio)]acetamide]	–	–	5 to 25 µM	≥ 100 µM	–
Cc1cc(-n2c(SCC(=O)Nc3ccc4c(c3)CCC4)nc3ccccc3c2=O)ccc1Cl [Example C33, 2-[3-(4-chloro-3-methylphenyl)-4-oxo(3-hydroquinazolin-2-ylthio)]-N-indan-5-ylacetamide]	–	–	1 to 5 µM	50 to 100 µM	–
O=C(CSc1nc2cccc(F)c2c(=O)n1-c1ccc(Cl)c(F)c1)Nc1ccc2c(c1)CCC2 [Example C29, 2-[3-(4-chloro-3-fluorophenyl)-5-fluoro-4-oxo(3-hydroquinazolin-2-ylthio)]-N-indan-5-ylacetamide]	1 to 5 µM	≥ 100 µM	–	–	–
O=C(CSc1nc2cccc(F)c2c(=O)n1-c1ccc(Cl)c(Cl)c1)Nc1ccc2c(c1)CCC2 [Example C31]	< 1 µM	10 to 50 µM	5 to 25 µM	≥ 100 µM	–
O=C(CSc1nc2ccccc2c(=O)n1-c1c(Cl)cccc1Cl)Nc1ccc2c(c1)CCC2 [Example C40, 2-[3-(2,6-dichlorophenyl)-4-oxo(3-hydroquinazolin-2-ylthio)]-N-indan-5-ylacetamide]	–	–	5 to 25 µM	≥ 100 µM	–
O=C(CSc1nc2ccccc2c(=O)n1-c1cc(F)c(F)cn1)Nc1ccc2c(c1)CCC2 [Example C43, 2-[3-(4,5-difluoro(2-pyridyl))-4-oxo(3-hydroquinazolin-2-ylthio)]-N-indan-5-ylacetamide]	–	–	5 to 25 µM	≥ 100 µM	–
O=C(CSc1nc2ccccc2c(=O)n1-c1ccc(F)c(F)c1)Nc1cccc2c1CCC2 [Example C26, 2-[3-(3,4-difluorophenyl)-4-oxo(3-hydroquinazolin-2-ylthio)]-N-indan-4-ylacetamide]	< 1 µM	≥ 100 µM	–	–	IC50 (HCV Con 1b (Replicon)): < 1 µM; CC50 (HCV Con 1b (Replicon)): 50 to 100 µM
O=C(CSc1nc2ccccc2c(=O)n1-c1ccc(F)c(F)c1)Nc1ccc2c(c1)CCC2 [Example C27, 2-[3-(3,4-difluorophenyl)-4-oxo(3-hydroquinazolin-2-ylthio)]-N-indan-5-ylacetamide]	5 to 25 µM	≥ 100 µM	5 to 25 µM	≥ 100 µM	–
O=C(CSc1nc2ccccc2c(=O)n1-c1ccc(F)c(Cl)c1)Nc1ccc2c(c1)CCC2 [Example C12, 2-[3-(3-chloro-4-fluorophenyl)-4-oxo(3-hydroquinazolin-2-ylthio)]-N-indan-5-ylacetamide]	1 to 5 µM	≥ 100 µM	5 to 25 µM	≥ 100 µM	IC50 (HCV Con 1b (Replicon)): < 1 µM; CC50 (HCV Con 1b (Replicon)): 50 to 100 µM
Cc1cc(-n2c(SCC(=O)Nc3ccc4c(c3)CCC4)nc3ccccc3c2=O)ccc1F [Example C34, 2-[3-(4-fluoro-3-methylphenyl)-4-oxo(3-hydroquinazolin-2-ylthio)]-N-indan-5-ylacetamide]	–	–	5 to 25 µM	≥ 100 µM	–
